# Measurements taken from patent US7098195B2, “Fluorinated glucosamine analogs useful for modulating post-translational glycosylations on cells” (Health Research, Inc., priority 2001, dated 2006).
# Experiments:
# [1] = tested on: P-selectin ligand activity of CLA+ T-lymphocytes; test: Parallel-plate flow chamber, CLA+ T-cell tethering and rolling on P-selectin chimera; format: cell-based, human; conditions: 0.1% for 1 h at 37° C.
# Protocol: (§1) To analyze the affects of 4-F-GlcNAc on the function of CLA on human T-cells, we examined the ability of 4-F-GlcNAc-treated (0.05, 0.1, 0.5 mM for 30 hrs) CLA-+ T-cells cultures to engage with immobilized E- and P-selectin chimera in the parallel-plate flow chamber. As described for flow cytometric analyses (Example 13), cells were first pretreated with neuraminidase to remove terminal sialic acid residues required for HECA-452 reactivity and for E- and P-selectin ligand activity of CLA. This approach allowed for the assessment on de novo synthesized CLA molecules.
# (§2) Tethering and rolling of human T-cells on recombinant human E- and P-selectin-Ig chimera (provided by Dr. Robert Fuhlbrigge, Harvard Medical School) and human L-selectin-Ig (gift from Dr. Ray Camphausen, Wyeth/Genetics Institute, Inc., Cambridge, Mass.) were analyzed in the parallel-plate flow chamber under physiologic shear stress conditions (3). To prepare E- and P-selectin-Ig chimera spots, protein A (300 μg/15 μl 0.1M NaHCO3) was adsorbed to Ten-twenty-nine™ Petri dishes for 2 h at 37° C. Human serum albumin ([…] PBS) then added and incubated for 2 h at 37° C. to block non-specific binding sites. E-selectin-Ig (50 ng/50 μl PBS) or P-selectin-Ig (50 ng/50 μl PBS) solutions was pipetted directly over the pre-existing protein A spots for 18 h at 4° C. To prepare L-selectin-Ig spots, L-selectin-Ig (300 ng/15 μl PBS) or isotype control human IgG (300 ng/15 μl) were adsorbed directly to plastic (non-protein A-coated) for 18 h at 4° C. and blocked in 100% FBS for 2 h at 4° C.
# (§3) CLA^+ T-cells or freshly isolated PBL were treated with neuraminidase and metabolic glycosylation inhibitors or with protease (bromelain) as described above, washed twice in HBSS, suspended at 2×10^6/ml in HBSS/10 mM HEPES/2 mM CaCl2 (H/H/Ca^++) and infused into the chamber over selectin chimeras. Protease treatment was performed to control for residual E-selectin activity not attributable to the expression of CLA on a protein scaffold. Cell tethering was permitted at 0.6 dynes/cm^2 for 1 min, then stepwise increments in shear stress every 15 sec were employed to a final shear stress level of 60 dynes/cm^2. The number of cells rolling/viewing field (at 100× magnification) was quantified at each level of shear stress in triplicates for a minimum of three experiments. […] Negative control experiments were performed in parallel, wherein cell binding was examined in H/H adhesion assay medium containing 5 mM EDTA as well as assaying cell binding to human IgG isotype control.
# (§4) Utilizing the parallel-plate flow chamber under physiologic shear stress conditions, E-, P- and L-selectin ligand activities of human CLA^+ T-cells treated were analyzed in an identical manner as cells prepared for Western blotting and autoradiography studies.
# HECA-452 epitopes = test: Flow cytometric analysis of HECA-452 epitopes on human T-lymphocytes; format: cell-based; conditions: CLA^low T-cells or PBL after bromelain digestion
# Protocol: Only positive cells, which were those cells with fluorescence above background autofluorescence and fluorochrome-conjugated secondary Ab staining, were analyzed.
# For analysis of CLA expression on T-cells treated with glycoconjugate modifiers, CLA^+ T-cells were first pretreated with neuraminidase (0.1 U/ml at 37° C. for 1 h) to eliminate functional CLA and cleave all HECA-452 reactive epitopes from the cell surface (35–38). Since we wanted to investigate whether these compounds directly affected CLA expression and function, neuraminidase pretreatment followed by incubations with glycosylation modifiers allowed for examination of de novo synthesized CLA/HECA-452 epitopes re-expressed on the cell surface. After neuraminidase digestion, cells were then incubated with tunicamycin (0.02 mM) (an inhibitor of GlcNAc phosphotransferase, the initial step of N-glycosylation), swainsonine (0.23 mM) (an inhibitor of α-mannosidase II and complex-type N-glycosylation), 4-F-GlcNAc (0.05 mM) (putative inhibitor of poly-N-acetyllactosamine biosynthesis), BAG (an inhibitor of O-glycan biosynthesis) (<2 mM) or GlcNAc (5 mM) (negative control, naturally-occurring metabolic counterpart of 4-F-GlcNAc)for 30 h in the presence of human recombinant IL-2. […] Concentrations for BAG were selected based on maximal O-glycosylation inhibitory effects at non-growth inhibitory concentrations as previously reported (39). To determine a suitable concentration of 4-F-GlcNAc for examining glycoconjugate-modifying effects without influencing cell growth or protein synthesis, we performed preliminary growth inhibitory experiments of cells incubated with 4-F-GlcNAc for 2 cell doublings (˜36 h) at 37° C. (cell viability assessed by Trypan-blue exclusion).
# Flow cytometric analysis was performed on human leukocytes utilizing both direct and indirect immunofluorescence staining approaches. All cells utilized for these experiments were washed twice with cold PBS/2%FBS and suspended at 10^7/ml PBS/1% FBS. Primary antibodies, anti-CLA (HECA-452), -CD4, -CD8, CD43 (L60) and PSGL-1 (PL-2) along with the appropriate isotype-matched control antibodies were incubated with the cells for 30 min on ice. Following two washes with PBS/2%FBS, cells were resuspended in PBS/1%FBS and fluorochrome-conjugated secondary antibodies (2 μl) and incubated for 30 min on ice.
# [2] = tested on: E-selectin ligand activity of CLA+ T-lymphocytes; test: Parallel-plate flow chamber, CLA+ T-cell tethering and rolling on E-selectin chimera; format: cell-based, human; conditions: 0.1% for 1 h at 37° C.
# Protocol: as §1, §2, §3, §4
# [3] = tested on: L-selectin ligand activity of human CLA+ T-cells; test: Parallel-plate flow chamber, CLA+ T-cell rolling on L-selectin chimera; format: cell-based; conditions: 0.1% for 1 h at 37° C.
# Protocol: as §2, §3, §4
substance,measurement,setting,value
bromelain,P-selectin ligand activity,[1],completely eliminated
same,HECA-452 expression by flow cytometry,HECA-452 epitopes,relatively unchanged
same,remaining E-selectin ligand activity,[2],< 25 % of control
same,L-selectin ligand activity,[3],completely eliminated
